According to article PMC6017631, “The Effect of Combining Natural Terpenes and Antituberculous Agents against Reference and Clinical Mycobacterium tuberculosis Strains” (Molecules : A Journal of Synthetic Chemistry and Natural …, 2018):
Values after ≈ are worked out from the molar mass of the structure shown. Read-outs that look alike come from different tables or passages of the source.

Columns and labels:
[1] = tested on: M. tuberculosis H37Rv; settings: H37Rv and some Mtb drug-resistant clinical isolates ref 2, 60, 61, cited from earlier work
[2] = tested on: clinical isolate 126 (INH resistant); experiment: microbe, parasite or virus in culture; type: cell-based, Mycobacterium tuberculosis
[3] = tested on: clinical isolate 12331 (IRE resistant); experiment: microbe, parasite or virus in culture; type: cell-based, Mycobacterium tuberculosis
[4] = tested on: clinical isolate 85/13 (Beijing, SIRE resistant); experiment: microbe, parasite or virus in culture; type: cell-based, Mycobacterium tuberculosis
[5] = compounds tested separately, 126
[6] = compounds tested separately, 12331
[7] = compounds tested separately, 85/13
[8] = Mycobacterium tuberculosis, read-out: MIC for EMB in a Presence of Terpenes
[9] = Mycobacterium tuberculosis, read-out: MIC for INH in a Presence of Terpenes
[10] = Mycobacterium tuberculosis, read-out: MIC for RMP in a Presence of Terpenes

In the case of `CC(=O)c1c(O)c(C)c(O)c2c1OC1=CC(=O)C(C(C)=O)C(=O)C12C` (stereo not shown) [usnic acid], the FICI ([1]; with rifampicin) is listed as 0.25–0.38.

For `C=C[C@]1(C)CC[C@@H](C(=C)C)C[C@H]1C(=C)C` [β-elemene], the MIC [2, 5] was 256 µg/mL (≈ 1250 µM), the MIC [3, 6] was 256 µg/mL (≈ 1250 µM) and the MIC [4, 7] was >512 µg/mL.

For `CO[C@H]1/C=C/O[C@@]2(C)Oc3c(C)c(O)c4c(O)c(c(/C=N/N5CCN(C)CC5)c(O)c4c3C2=O)NC(=O)/C(C)=C\C=C\[C@H](C)[C@H](O)[C@@H](C)[C@@H](O)[C@@H](C)[C@H](OC(C)=O)[C@@H]1C` [RMP, rifampicin, reference compound], the MIC ([2]; Mycobacterium tuberculosis) was 0.25 µg/mL (≈ 0.304 µM), the MIC ([3]; Mycobacterium tuberculosis) was 256 µg/mL (≈ 311 µM) and the MIC ([4]; Mycobacterium tuberculosis) was 128 µg/mL (≈ 156 µM).

`C=CC(=C)CCC=C(C)C` [myrcene] showed an MIC ([2]; Mycobacterium tuberculosis) of 256 µg/mL (≈ 1880 µM), an MIC [2, 8] of 0.25 µg/mL and an MIC [2, 9] of 0.5 µg/mL. The MIC [2, 10] was 0.25 µg/mL, the MIC ([3]; Mycobacterium tuberculosis) was 512 µg/mL (≈ 3760 µM) and the MIC [3, 8] was 16 µg/mL. For the same compound, the MIC [3, 9] was 16 µg/mL, the MIC [3, 10] was 256 µg/mL and the MIC ([4]; Mycobacterium tuberculosis) was > 512 µg/mL. For the same compound, the MIC [4, 8] was 16 µg/mL, the MIC [4, 9] was 16 µg/mL and the MIC [4, 10] was 128 µg/mL.

In the case of `NNC(=O)c1ccncc1` [INH, isoniazid, reference compound], the MIC ([2]; Mycobacterium tuberculosis) is reported as 0.5 µg/mL (≈ 3.65 µM), the MIC ([3]; Mycobacterium tuberculosis) is reported as 16 µg/mL (≈ 117 µM) and the MIC ([4]; Mycobacterium tuberculosis) is reported as 16 µg/mL (≈ 117 µM).

In the case of `CCCCCCCC/C=C\CCCCCCCC(=O)O` [oleic acid], the FICI ([1]; in combination with isoniazid, rifampicin and ethambutol) is given as 0.09–0.36.

With `C=C1CCC2(C(C)C)CC12` (stereo not shown) [sabinene] the MIC ([2]; Mycobacterium tuberculosis) was 128 µg/mL (≈ 940 µM), the MIC [2, 8] was 0.25 µg/mL and the MIC [2, 9] was 0.5 µg/mL. The MIC [2, 10] was 0.25 µg/mL, the MIC ([3]; Mycobacterium tuberculosis) was > 512 µg/mL and the MIC [3, 8] was 16 µg/mL. For the same compound, the MIC [3, 9] was 16 µg/mL, the MIC [3, 10] was 256 µg/mL and the MIC ([4]; Mycobacterium tuberculosis) was 512 µg/mL (≈ 3760 µM). It also gave an MIC [4, 8] of 16 µg/mL, an MIC [4, 9] of 16 µg/mL and an MIC [4, 10] of 128 µg/mL.

In the case of `Cc1cc(O)c2c(c1)C(=O)C=CC2=O` [7-methyljuglone], the FICI ([1]; in combination with isoniazid) is listed as 0.2 and the FICI ([1]; with rifampicin) is listed as 0.5.

In the case of `CC(C)=CCC[C@](C)(O)C1CC=C(C)CC1` (stereo partly shown) [bisabolol], the MIC [2, 5] is reported as 32 µg/mL (≈ 144 µM), the MIC [3, 6] is reported as 256 µg/mL (≈ 1150 µM) and the MIC [4, 7] is reported as 128 µg/mL (≈ 576 µM).

With `CC[C@@H](CO)NCCN[C@@H](CC)CO` [EMB, ethambutol, reference compound] the MIC ([2]; Mycobacterium tuberculosis) was 0.25 µg/mL (≈ 1.22 µM), the MIC ([3]; Mycobacterium tuberculosis) was 16 µg/mL (≈ 78.3 µM) and the MIC ([4]; Mycobacterium tuberculosis) was 16 µg/mL (≈ 78.3 µM).

In the case of (S)-limonene, the MIC [2, 5] is reported as 256 µg/mL, the MIC [3, 6] is reported as 512 µg/mL and the MIC [4, 7] is reported as >512 µg/mL.

In the case of `CC1=CCC2CC1C2(C)C` (stereo not drawn) [α-pinene], the MIC ([2]; Mycobacterium tuberculosis) is reported as 128 µg/mL (≈ 940 µM), the MIC [2, 8] is reported as 0.25 µg/mL and the MIC [2, 9] is reported as 0.5 µg/mL. The MIC [2, 10] was 0.25 µg/mL, the MIC ([3]; Mycobacterium tuberculosis) was > 512 µg/mL and the MIC [3, 8] was 16 µg/mL. It also gave an MIC [3, 9] of 16 µg/mL, an MIC [3, 10] of 256 µg/mL and an MIC ([4]; Mycobacterium tuberculosis) of 512 µg/mL (≈ 3760 µM). For the same compound, the MIC [4, 8] was 16 µg/mL, the MIC [4, 9] was 16 µg/mL and the MIC [4, 10] was 128 µg/mL.

With `C=C(C)[C@H]1CC=C(C)CC1` [(R)-limonene] the MIC [2, 5] was 128 µg/mL (≈ 940 µM), the MIC [3, 6] was 128 µg/mL (≈ 940 µM) and the MIC [4, 7] was 256 µg/mL (≈ 1880 µM).
